# Assay results: PubChem BioAssay (NCI)
# “And” between values parts separate entries of the source, which are not always exact repeats. Equal entries are not always repeated.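 48-hour exposure; five concentrations; linearly interpolated endpoints. GI50: concentration for 50% inhibition of growth. TGI denotes the concentration required for complete inhibition of growth.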
# Columns and labels:
# Test in all cases: NCI tumour cell line growth inhibition, 48 h
# [1] = tested on: SNB-19 CNS
# [2] = tested on: HOP-62 NSCLC
# [3] = tested on: A498 renal
# [4] = tested on: SK-MEL-5 melanoma
# [5] = tested on: SNB-75 CNS
# [6] = tested on: MOLT-4 leukemia
# [7] = tested on: K-562 leukemia
# [8] = tested on: PC-3 prostate
# [9] = tested on: CAKI-1 renal
# [10] = tested on: OVCAR-8 ovarian
SMILES,GI50 [1],TGI [1],GI50 [2],TGI [2],GI50 [3],TGI [3],GI50 [4],TGI [4],GI50 [5],TGI [5],GI50 [6],TGI [6],GI50 [7],TGI [7],GI50 [8],TGI [8],GI50 [9],TGI [9],GI50 [10],TGI [10]
COc1ccc(S(=O)(=O)N2CCN(C(=O)OCc3ccccc3)CC2C(=O)NO)cc1 (stereo not drawn),> 25 µM,> 25 µM,> 25 µM,> 25 µM,24600 nM,> 25 µM,> 25000 nM,> 25 µM,> 25000 nM,> 25 µM,5.37 µM,18.4 µM,13600 nM,> 25 µM,17600 nM,> 25 µM,10100 nM,> 25 µM,> 25 µM,> 25 µM
NC(=O)c1nnn(Cc2cc(Cl)c(C(=O)c3ccc(Cl)cc3)c(Cl)c2)c1N,> 9.09 µM,> 9.09 µM and 30.5 µM,> 9.09 µM,> 9.09 µM and 41.1 µM,> 9090 nM,> 9.09 µM and 27.2 µM,> 9090 nM,> 9.09 µM and 32.7 µM,> 9090 nM,> 9.09 µM and 48 µM,> 9.09 µM,> 90.7 µM,2190 nM,> 70.2 µM,–,> 50.2 µM,–,25.5 µM,> 9.09 µM,> 9.09 µM and 40.8 µM
CCCCCCCCCCCCOC1C(CNC(=O)C2OC3OC(C)(C)OC3C2NC(=O)CN2CCN(c3ccccn3)CC2)OC2OC(C)(C)OC21 (stereo not drawn),2.96 µM,7.99 µM,1.94 µM,3.53 µM,1600 nM,2.97 µM,1700 nM,3.09 µM,2310 nM,6.77 µM,1.86 µM,4.45 µM,1670 nM,4.56 µM,1750 nM,3.24 µM,2270 nM,4.59 µM,1.62 µM,3.15 µM
C=C1C(=O)O[C@H]2[C@H]1CC/C(C=Nc1ccc(C(F)(F)F)cc1N)=C\CC[C@@]1(C)O[C@@H]21,11.5 µM,26.2 µM,12.8 µM,26.5 µM,17000 nM,30.8 µM,13500 nM,26.7 µM,10900 nM,23.2 µM,3.06 µM,9.67 µM,4390 nM,16.5 µM,9080 nM,23.4 µM,3730 nM,16.7 µM,4.29 µM,15.9 µM
CCc1ccc(CCC(=O)Nc2ncc(Cc3cc(Cl)ccc3Cl)s2)o1,1.87 µM,12.4 µM,2.01 µM,16.9 µM,1190 nM,3.46 µM,1210 nM,> 50 µM,412 nM,2.4 µM,1.3 µM,> 50 µM,242 nM,> 50 µM,1490 nM,> 50 µM,774 nM,12.1 µM,2.25 µM,> 50 µM
CC1(C)Cc2cccc(OCC(O)CN3CCN(c4ccc(F)cc4)CC3)c2O1 (stereo not drawn),31.7 µM,> 50 µM,21.9 µM,> 50 µM,14000 nM,35.1 µM,6990 nM,13.9 µM,10900 nM,34.2 µM,20.2 µM,> 50 µM,16600 nM,> 50 µM,14000 nM,> 50 µM,15800 nM,37.7 µM,18.2 µM,> 50 µM
CCOCCc1c(O)nc(SC)[nH]c1=O,> 100 µM,> 100 µM,> 100 µM,> 100 µM,> 100000 nM,> 100 µM,> 100000 nM,> 100 µM,> 100000 nM,> 100 µM,> 100 µM,> 100 µM,> 100000 nM,> 100 µM,> 100000 nM,> 100 µM,> 100000 nM,> 100 µM,> 100 µM,> 100 µM
O=C(O)c1cc(N/C=C2\C(=O)c3ccccc3OC2O)ccc1O (stereo not drawn),19.9 µg/mL,67.5 µg/mL,29.8 µg/mL,75.3 µg/mL,35.8 µg/mL,77.5 µg/mL,18 µg/mL,39.3 µg/mL,25.2 µg/mL,129 µg/mL,15.3 µg/mL,72 µg/mL,13.3 µg/mL,72.1 µg/mL,29.4 µg/mL,120 µg/mL,13 µg/mL,42 µg/mL,27.4 µg/mL,> 150 µg/mL
CS(=O)(=O)N1CCN(Cc2cc3nc(-c4cccc5[nH]ncc45)nc(N4CCOCC4)c3s2)CC1,2.91 µM and 0.896 µM,> 100 µM,0.655 µM and 0.573 µM,> 100 µM,61.8 nM and 58.1 nM,0.433 µM and 0.389 µM,1110 nM and 537 nM,> 100 µM,91.8 nM and 30.1 nM,3.28 µM and 0.495 µM,0.315 µM and 0.302 µM,> 100 µM,3910 nM and > 2170 nM,> 100 µM,218 nM and 260 nM,> 100 µM,419 nM and 209 nM,3.92 µM and > 3.95 µM,0.789 µM and 0.594 µM,> 100 µM
O=C(O)CN(CC(=O)O)Cc1cc2c(cc1O)Oc1cc(O)c(CN(CC(=O)O)CC(=O)O)cc1C21OC(=O)c2ccccc21,–,> 100 µM,–,> 100 µM,–,> 100 µM,–,> 100 µM,–,> 100 µM,–,> 100 µM,–,> 100 µM,–,> 100 µM,–,> 100 µM,–,> 100 µM
CN(CCCCCl)P(=O)(OCc1ccc([N+](=O)[O-])o1)C(F)(F)c1ccc(CC(=O)N[C@@H](CC(=O)O)C(=O)N[C@@H](Cc2ccc(C(F)(F)P(=O)(OCc3ccc([N+](=O)[O-])o3)N(C)CCCCCl)cc2)C(N)=O)cc1 (stereo partly drawn),54.9 µM,> 100 µM,> 100 µM,> 100 µM,33000 nM,87.5 µM,43800 nM,> 100 µM,34500 nM,91.9 µM,31.4 µM,91.2 µM,22400 nM,55.7 µM,80500 nM,> 100 µM,> 100000 nM,> 100 µM,> 100 µM,> 100 µM
Nc1ncnc2c1c(-c1cccc(OCc3ccccc3)c1)cn2C1CC(CN2CCCC2)C1 (stereo not drawn),4.19 µM,16.9 µM,1.99 µM,5.5 µM,1720 nM,4.66 µM,1390 nM,2.76 µM,1240 nM,3.19 µM,2.7 µM,8.57 µM,1860 nM,6.54 µM,2500 nM,10.4 µM,2080 nM,9.27 µM,4.74 µM,18 µM
Fc1ccc(CNc2c3ccccc3nc3ccccc23)cc1,3.66 µM,15.4 µM,3.58 µM,16.7 µM,1360 nM,3.24 µM,1730 nM,3.1 µM,2010 nM,10.8 µM,2.9 µM,10.8 µM,2490 nM,16.2 µM,3110 nM,16.8 µM,1460 nM,3.8 µM,2.64 µM,12.5 µM
CC1(C)CC(=O)C(C(c2cccc(O)c2O)C2C(=O)CC(C)(C)CC2=O)C(=O)C1,–,> 100 µM,–,> 100 µM,–,> 100 µM,–,> 100 µM,–,> 100 µM,–,> 100 µM,–,> 100 µM,–,> 100 µM,–,> 100 µM,–,> 100 µM
Cn1cc(C2=C(c3c4n(c5ccccc35)CC(CN)C4)C(=O)NC2=O)c2ccccc21 (stereo not drawn),5.39 µM,15.3 µM,4.56 µM,11 µM,2960 nM,6.4 µM,3530 nM,6.89 µM,246 nM,2.93 µM,3.4 µM,15 µM,1640 nM,17.9 µM,2040 nM,9.01 µM,3370 nM,9.51 µM,3.92 µM,8.93 µM
COc1ccc(-c2cc(-c3ccc(O)cc3)nc3nc(=S)[nH]c(N)c23)cc1,26.7 µM,> 100 µM,20.7 µM,47.5 µM,20500 nM,43.4 µM,16100 nM,31 µM,26200 nM,> 100 µM,7.01 µM,> 100 µM,16900 nM,> 100 µM,15800 nM,43.7 µM,27100 nM,88.7 µM,16.1 µM,43.1 µM
O=C(O)CNC(=O)c1ccccc1O,–,> 100 µM,–,> 100 µM,–,> 100 µM,–,> 100 µM,–,> 100 µM,–,> 100 µM,–,> 100 µM,–,> 100 µM,–,> 100 µM,–,> 100 µM
CCOC(=O)c1c[nH]c2c(OCc3ccccc3)c3ccccc3c(O)c2c1=O,16.7 µM,97.1 µM,14.4 µM,42.9 µM,27300 nM,> 78.1 µM,2550 nM,7.52 µM,11600 nM,> 54.4 µM,6.24 µM,> 100 µM,3150 nM,> 39.1 µM,2970 nM,> 68 µM,4370 nM,21.1 µM,5.6 µM,41.3 µM
C(=N/Nc1ncnc2nc[nH]c12)/c1ccccn1,0.98 µM,> 100 µM,0.687 µM,> 100 µM,6170 nM,> 100 µM,1280 nM,4.61 µM,1730 nM,35.1 µM,0.367 µM,> 100 µM,803 nM,> 100 µM,786 nM,> 100 µM,308 nM,2.64 µM,0.393 µM,> 100 µM
CC(=O)Oc1ccc2ccc(=O)oc2c1OC(C)=O,–,> 100 µM,–,> 100 µM,–,> 100 µM,–,94.2 µM,–,> 100 µM,–,> 100 µM,–,> 100 µM,–,> 100 µM,–,> 100 µM,–,> 100 µM
C[N+](C)(C)CCC(=O)N1C/C(=C\c2ccccc2)C(=O)/C(=C/c2ccccc2)C1,–,12.2 µM,–,33.6 µM,–,35.3 µM,–,22.6 µM,–,24.3 µM,–,7.31 µM,–,6.3 µM,–,6.97 µM,–,18.2 µM,–,8.44 µM
O=C(Nc1ncc(Cc2ccccc2)s1)c1ccc2c(c1)OCCO2,0.0549 µM,> 38 µM,0.078 µM,> 100 µM,12.3 nM,0.0687 µM,42.8 nM,0.454 µM,27.7 nM,1.66 µM,0.146 µM,> 100 µM,38.3 nM,> 100 µM,42.4 nM,> 100 µM,40.6 nM,> 39 µM,0.0591 µM,> 100 µM
CCOC(=O)C1=C(N)Oc2c(sc3c(C)cccc23)C1c1ccc(Cl)cc1 (stereo not drawn),3.71 µM,16 µM,3.81 µM,21.8 µM,1000 nM,7.09 µM,4040 nM,14.4 µM,643 nM,7.79 µM,3.58 µM,19.7 µM,1320 nM,> 100 µM,2530 nM,13.5 µM,1200 nM,17.3 µM,4.24 µM,20.7 µM
CC(C)c1ccc2c(N=Nc3ccc(S(N)(=O)=O)cc3)c(O)[nH]c2c1,> 14.5 µM,> 25 µM,5.54 µM,12.6 µM,> 21500 nM,> 25 µM,9860 nM,> 25 µM,4720 nM,10.3 µM,> 25 µM,> 25 µM,> 25000 nM,> 25 µM,> 17100 nM,> 25 µM,24900 nM,> 25 µM,10.3 µM,> 20.1 µM
